Experimental data taken from ChEMBL document CHEMBL1201862, “PubChem BioAssay data set” (2004).
Active and inactive are the calls of the source.

What was measured:
[1] = target: T1, Apoptotic protease-activating factor 1 (Homo sapiens, UniProt O14727); format: functional
T1 sequence (O14727 whole entry): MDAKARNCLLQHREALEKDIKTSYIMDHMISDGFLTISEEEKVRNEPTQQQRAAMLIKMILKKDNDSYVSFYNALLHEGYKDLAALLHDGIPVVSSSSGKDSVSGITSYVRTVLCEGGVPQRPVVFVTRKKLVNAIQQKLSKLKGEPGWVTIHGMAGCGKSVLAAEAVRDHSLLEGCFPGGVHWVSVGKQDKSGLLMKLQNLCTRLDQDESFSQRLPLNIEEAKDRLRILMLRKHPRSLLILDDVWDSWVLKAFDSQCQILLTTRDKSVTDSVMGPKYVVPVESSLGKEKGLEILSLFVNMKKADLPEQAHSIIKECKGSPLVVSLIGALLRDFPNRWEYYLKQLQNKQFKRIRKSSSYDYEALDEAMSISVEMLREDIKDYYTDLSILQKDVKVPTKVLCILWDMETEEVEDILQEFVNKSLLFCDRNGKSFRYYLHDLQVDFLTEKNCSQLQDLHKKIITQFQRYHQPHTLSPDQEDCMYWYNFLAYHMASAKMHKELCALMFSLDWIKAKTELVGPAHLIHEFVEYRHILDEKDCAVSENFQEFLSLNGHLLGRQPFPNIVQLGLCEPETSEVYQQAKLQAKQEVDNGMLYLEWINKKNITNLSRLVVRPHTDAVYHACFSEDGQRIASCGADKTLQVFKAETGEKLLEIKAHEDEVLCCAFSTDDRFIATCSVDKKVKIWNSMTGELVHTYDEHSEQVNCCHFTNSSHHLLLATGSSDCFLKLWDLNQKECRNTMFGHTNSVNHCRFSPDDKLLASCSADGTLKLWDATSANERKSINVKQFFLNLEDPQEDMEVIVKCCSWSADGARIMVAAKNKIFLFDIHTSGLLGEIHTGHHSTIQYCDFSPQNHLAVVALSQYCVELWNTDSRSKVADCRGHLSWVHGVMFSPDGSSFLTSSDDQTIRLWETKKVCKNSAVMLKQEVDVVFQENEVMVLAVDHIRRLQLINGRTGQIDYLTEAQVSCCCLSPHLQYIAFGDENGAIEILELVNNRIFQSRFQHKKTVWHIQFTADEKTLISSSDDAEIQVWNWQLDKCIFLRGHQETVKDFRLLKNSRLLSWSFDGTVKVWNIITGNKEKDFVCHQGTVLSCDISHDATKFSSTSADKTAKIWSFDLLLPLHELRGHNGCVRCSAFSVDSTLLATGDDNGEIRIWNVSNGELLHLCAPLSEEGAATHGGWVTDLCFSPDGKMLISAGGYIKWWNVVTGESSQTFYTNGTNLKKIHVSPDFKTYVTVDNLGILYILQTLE

[2] = target: T2, Ubiquitin-conjugating enzyme E2 N (Homo sapiens, UniProt P61088); format: functional
T2 sequence (P61088 whole entry): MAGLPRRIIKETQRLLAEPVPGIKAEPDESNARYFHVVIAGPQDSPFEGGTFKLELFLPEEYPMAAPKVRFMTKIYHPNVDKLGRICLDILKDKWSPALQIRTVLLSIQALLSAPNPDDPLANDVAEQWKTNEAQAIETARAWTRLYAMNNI

[3] = target: T3, Bcl-2-related protein A1 (Mus musculus, UniProt Q07440); format: functional;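 note: confirmatory dose–response counterscreen on Bfl-1, used to check hits from a UBC13 polyubiquitin inhibitor campaign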
T3 sequence (Q07440 whole entry): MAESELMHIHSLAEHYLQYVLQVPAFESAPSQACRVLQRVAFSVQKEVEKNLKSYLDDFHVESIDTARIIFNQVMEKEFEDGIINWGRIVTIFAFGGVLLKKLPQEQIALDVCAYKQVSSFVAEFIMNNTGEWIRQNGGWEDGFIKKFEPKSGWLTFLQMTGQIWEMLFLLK

[4] = target: T2, Ubiquitin-conjugating enzyme E2 N; format: functional; remark: listed apart in the source
[5] = target: Beta-lactamase (Pseudomonas aeruginosa, UniProt Q79MP6);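 note: biochemical dose-response test of metallo-beta-lactamase enzyme inhibition, read out by epi-absorbance; purified recombinant IMP-1 metallo-beta-lactamase with nitrocefin as substrate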
[6] = target: E3 ubiquitin-protein ligase XIAP (Homo sapiens, UniProt P98170); assay: Counter Screen using XIAP-Bir3 for Chemical Antagonists of Bir1/2 domains of IAP-family anti-apoptotic proteins. [Related pubchem assays (depositor defined):AID1018, AID1449, AID1514, AID1638, AID1749, AID1750, AID488957, AID488963]
[7] = target: Beta-lactamase (Salmonella choleraesuis (strain SC-B67), UniProt Q5J463)
[8] = target: Beta Lactamase (Pseudomonas aeruginosa, UniProt Q932Y6);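 note: confirmatory high-throughput screen measuring VIM-2 metallo-beta-lactamase inhibition by epi-absorbance in dose response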
[9] = target: T1, Apoptotic protease-activating factor 1; assay: SAR analysis of small molecule inhibitors of Apaf-1 in a Fluorescent assay.; format: functional; settings: read-out: IC50_Mean
[10] = target: T1, Apoptotic protease-activating factor 1; assay: SAR analysis of small molecule Activators of Apaf-1 in a Fluorescent assay - set 2.; format: functional; settings: read-out: EC50_Mean
[11] = SAR analysis of small molecule activators of Apaf-1 using a LZ-Caspase-9/Caspase-3 Fluorescent Selectivity assay - Set 2.; format: functional; settings: read-out: EC50_Mean
[12] = target: Glycogen synthase kinase-3 beta (Homo sapiens, UniProt P49841); assay: inhibition of human GSK3B activity – biochemical, microfluidics, dry powder samples, set 2, dose response (AID 623989); format: functional
[13] = target: Glycogen synthase kinase-3 alpha (Homo sapiens, UniProt P49840); assay: GSK3A enzyme blockers, homolog specificity check – biochemical, microfluidics, dry powder samples, set 2, selectivity assay for GSK3beta inhibitor project, dose response (AID 623978); format: functional
[14] = target: T4, Melanin-concentrating hormone receptor 1 (Homo sapiens, UniProt Q99705); assay: Late-stage fluorescence-based counterscreen for antagonists of the G-protein coupled receptor 7 (GPR7): cell-based dose response assay to identify antagonists of the melanin-concentrating hormone receptor 1 (MCHR1) Set 5.; format: functional
[15] = target: T5, Neuropeptides B/W receptor type 1 (Homo sapiens, UniProt P48145); assay: human NPBW1 receptor blockade, IC50 – cell-based, fluorescence, dose response, set 5, late-stage follow-up (AID 588566); format: functional
[16] = Vero cell cytotoxicity, dose response, cytotoxicity control for M. tuberculosis growth inhibitor project, Vero cells, purified and synthesized compounds, set 5 (AID 504909); format: functional; settings: Mycobacterium tuberculosis
[17] = Vero cell cytotoxicity, dose response, cytotoxicity control for M. tuberculosis growth inhibitor project, Vero cells, purified and synthesized compounds, set 4 (AID 504854); format: functional; settings: Mycobacterium tuberculosis
[18] = target: T4, Melanin-concentrating hormone receptor 1; assay: Late-stage fluorescence-based counterscreen for antagonists of the G-protein coupled receptor 7 (GPR7): cell-based dose response assay to identify antagonists of the melanin-concentrating hormone receptor 1 (MCHR1) Set 6.; format: functional
[19] = target: T5, Neuropeptides B/W receptor type 1; assay: human NPBW1 receptor blockade, IC50 – cell-based, fluorescence, dose response, set 6, late-stage follow-up (AID 588583); format: functional
[20] = target: Cyclin-dependent kinase 19 (Homo sapiens, UniProt Q9BWU1); assay: Navigating the Kinome. Panel member name: CDC2L6; format: functional
[21] = target: High affinity nerve growth factor receptor (Homo sapiens, UniProt P04629); format: functional;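 note: NTRK1 tested as one member of a kinome-wide profiling panel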
Chain of High affinity nerve growth factor receptor (P04629 whole entry): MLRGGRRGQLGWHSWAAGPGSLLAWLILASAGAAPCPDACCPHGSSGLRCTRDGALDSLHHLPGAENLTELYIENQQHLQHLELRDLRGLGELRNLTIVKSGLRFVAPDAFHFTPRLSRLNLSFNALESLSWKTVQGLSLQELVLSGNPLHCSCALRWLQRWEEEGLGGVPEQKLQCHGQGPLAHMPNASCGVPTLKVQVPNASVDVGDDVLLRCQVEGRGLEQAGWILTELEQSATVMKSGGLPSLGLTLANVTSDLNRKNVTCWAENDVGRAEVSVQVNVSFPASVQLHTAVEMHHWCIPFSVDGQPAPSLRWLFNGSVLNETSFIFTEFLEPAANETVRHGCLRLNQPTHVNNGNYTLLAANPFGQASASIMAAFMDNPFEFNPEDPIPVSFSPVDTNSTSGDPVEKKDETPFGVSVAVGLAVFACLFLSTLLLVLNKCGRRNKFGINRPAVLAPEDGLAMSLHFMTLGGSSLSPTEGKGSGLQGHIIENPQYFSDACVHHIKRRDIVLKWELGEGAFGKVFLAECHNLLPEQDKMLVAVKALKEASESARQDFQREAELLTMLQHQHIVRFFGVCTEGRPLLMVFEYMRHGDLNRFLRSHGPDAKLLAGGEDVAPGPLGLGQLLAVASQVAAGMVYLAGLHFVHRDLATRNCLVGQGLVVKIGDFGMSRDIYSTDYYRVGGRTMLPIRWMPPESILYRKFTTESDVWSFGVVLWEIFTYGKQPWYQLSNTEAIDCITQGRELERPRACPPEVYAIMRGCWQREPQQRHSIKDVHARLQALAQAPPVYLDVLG

T4 sequence (Q99705 whole entry): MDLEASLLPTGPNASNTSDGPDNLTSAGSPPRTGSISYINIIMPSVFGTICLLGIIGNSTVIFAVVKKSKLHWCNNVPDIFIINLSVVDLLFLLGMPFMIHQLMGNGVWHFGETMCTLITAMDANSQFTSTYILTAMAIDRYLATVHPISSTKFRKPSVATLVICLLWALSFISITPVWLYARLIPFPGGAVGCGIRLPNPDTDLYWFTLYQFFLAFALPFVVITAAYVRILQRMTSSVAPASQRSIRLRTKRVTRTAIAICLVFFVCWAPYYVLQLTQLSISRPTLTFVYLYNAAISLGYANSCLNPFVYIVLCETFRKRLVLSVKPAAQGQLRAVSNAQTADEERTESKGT
T5 sequence (P48145 whole entry): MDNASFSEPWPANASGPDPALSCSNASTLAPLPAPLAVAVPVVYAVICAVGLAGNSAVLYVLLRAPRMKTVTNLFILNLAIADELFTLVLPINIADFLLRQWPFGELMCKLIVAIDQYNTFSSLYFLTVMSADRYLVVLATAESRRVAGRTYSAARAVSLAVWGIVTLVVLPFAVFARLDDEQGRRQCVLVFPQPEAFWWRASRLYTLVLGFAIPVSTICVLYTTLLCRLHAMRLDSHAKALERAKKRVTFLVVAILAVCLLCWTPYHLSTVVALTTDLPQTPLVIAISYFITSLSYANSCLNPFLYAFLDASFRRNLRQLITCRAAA
Chain of Beta Lactamase (Q932Y6 whole entry): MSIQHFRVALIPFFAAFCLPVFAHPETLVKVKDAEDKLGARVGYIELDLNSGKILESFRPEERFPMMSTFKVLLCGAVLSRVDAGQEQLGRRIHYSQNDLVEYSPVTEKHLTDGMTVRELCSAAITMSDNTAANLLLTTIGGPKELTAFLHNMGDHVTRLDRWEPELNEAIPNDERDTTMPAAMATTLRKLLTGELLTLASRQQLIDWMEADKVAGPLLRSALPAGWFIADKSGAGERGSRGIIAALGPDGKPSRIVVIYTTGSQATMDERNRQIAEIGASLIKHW
Chain of E3 ubiquitin-protein ligase XIAP (P98170 whole entry): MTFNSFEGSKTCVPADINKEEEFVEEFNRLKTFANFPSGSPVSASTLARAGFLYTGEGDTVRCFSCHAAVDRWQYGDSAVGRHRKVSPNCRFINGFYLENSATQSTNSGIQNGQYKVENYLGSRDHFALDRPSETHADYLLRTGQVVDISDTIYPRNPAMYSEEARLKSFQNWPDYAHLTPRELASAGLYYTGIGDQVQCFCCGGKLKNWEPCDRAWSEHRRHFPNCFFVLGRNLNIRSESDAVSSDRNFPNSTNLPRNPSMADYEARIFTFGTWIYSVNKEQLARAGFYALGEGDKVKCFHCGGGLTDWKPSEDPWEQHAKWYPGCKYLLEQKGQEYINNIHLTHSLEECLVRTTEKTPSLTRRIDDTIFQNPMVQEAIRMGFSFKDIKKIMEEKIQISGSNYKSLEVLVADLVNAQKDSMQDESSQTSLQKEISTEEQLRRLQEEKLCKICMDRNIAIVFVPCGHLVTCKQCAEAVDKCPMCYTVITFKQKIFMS
Chain of Beta-lactamase (Salmonella choleraesuis (strain SC-B67), UniProt Q5J463) (Q5J463 whole entry): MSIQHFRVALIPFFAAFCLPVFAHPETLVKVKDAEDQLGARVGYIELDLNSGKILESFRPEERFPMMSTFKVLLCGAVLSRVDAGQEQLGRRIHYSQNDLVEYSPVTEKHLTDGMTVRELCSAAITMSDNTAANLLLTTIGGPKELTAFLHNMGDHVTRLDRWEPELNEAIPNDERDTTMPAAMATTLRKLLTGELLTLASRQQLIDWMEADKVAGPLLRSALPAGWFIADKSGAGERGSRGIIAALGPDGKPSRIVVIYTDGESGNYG
Chain of Beta-lactamase (Pseudomonas aeruginosa, UniProt Q79MP6) (Q79MP6 whole entry): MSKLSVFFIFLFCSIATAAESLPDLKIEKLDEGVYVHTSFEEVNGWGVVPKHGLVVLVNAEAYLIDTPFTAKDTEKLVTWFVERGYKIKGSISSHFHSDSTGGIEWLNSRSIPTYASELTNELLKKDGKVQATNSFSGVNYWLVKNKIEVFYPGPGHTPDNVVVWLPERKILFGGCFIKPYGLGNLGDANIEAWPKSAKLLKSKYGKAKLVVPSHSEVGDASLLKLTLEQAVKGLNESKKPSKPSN
Chain of Glycogen synthase kinase-3 alpha (P49840 whole entry): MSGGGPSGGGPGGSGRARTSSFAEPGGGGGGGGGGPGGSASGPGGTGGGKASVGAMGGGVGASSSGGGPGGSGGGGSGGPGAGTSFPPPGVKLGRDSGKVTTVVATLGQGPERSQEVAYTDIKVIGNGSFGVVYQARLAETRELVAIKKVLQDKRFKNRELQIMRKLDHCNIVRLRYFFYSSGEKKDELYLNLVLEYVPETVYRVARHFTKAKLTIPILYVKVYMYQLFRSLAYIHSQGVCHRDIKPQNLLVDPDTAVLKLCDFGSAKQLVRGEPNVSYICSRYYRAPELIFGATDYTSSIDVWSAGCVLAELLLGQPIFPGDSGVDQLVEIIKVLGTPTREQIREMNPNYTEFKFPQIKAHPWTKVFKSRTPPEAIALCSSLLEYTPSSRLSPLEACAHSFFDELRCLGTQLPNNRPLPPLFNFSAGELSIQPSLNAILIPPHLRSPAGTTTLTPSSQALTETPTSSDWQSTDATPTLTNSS
Chain of Cyclin-dependent kinase 19 (Q9BWU1 whole entry): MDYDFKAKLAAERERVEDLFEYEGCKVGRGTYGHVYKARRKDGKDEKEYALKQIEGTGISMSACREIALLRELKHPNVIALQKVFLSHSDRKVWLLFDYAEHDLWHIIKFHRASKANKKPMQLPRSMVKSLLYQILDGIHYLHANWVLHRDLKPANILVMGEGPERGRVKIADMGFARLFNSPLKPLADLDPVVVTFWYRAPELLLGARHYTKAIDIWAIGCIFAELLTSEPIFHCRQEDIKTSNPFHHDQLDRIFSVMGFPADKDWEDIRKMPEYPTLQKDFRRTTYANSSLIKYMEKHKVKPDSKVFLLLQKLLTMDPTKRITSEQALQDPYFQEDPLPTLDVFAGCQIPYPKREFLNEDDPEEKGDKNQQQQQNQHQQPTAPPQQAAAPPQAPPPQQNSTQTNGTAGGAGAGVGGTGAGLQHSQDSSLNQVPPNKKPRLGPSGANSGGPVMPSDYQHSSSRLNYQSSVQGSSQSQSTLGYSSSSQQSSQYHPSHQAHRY
Chain of Glycogen synthase kinase-3 beta (P49841 whole entry): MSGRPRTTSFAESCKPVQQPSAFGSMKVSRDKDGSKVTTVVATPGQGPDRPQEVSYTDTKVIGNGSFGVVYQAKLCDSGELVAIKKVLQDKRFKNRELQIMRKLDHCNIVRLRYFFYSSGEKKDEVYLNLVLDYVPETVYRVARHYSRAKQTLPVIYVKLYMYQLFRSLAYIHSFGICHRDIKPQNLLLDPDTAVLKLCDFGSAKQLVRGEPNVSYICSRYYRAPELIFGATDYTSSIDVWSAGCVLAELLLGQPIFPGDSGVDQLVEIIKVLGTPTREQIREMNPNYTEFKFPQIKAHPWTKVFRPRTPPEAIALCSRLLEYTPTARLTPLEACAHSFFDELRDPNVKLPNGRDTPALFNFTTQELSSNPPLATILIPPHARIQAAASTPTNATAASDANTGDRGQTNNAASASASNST

For `CCN(CC)CCOC(=O)c1ccc(N/C=C(/C#N)c2nc(-c3cc4ccccc4oc3=O)cs2)cc1`, the IC50 [1] was 4.12 µM (active), the IC50 [2] was 3.74 µM (active) and the IC50 [3] was 550 nM (active). The IC50 [4] was 3.5 µM (active), the IC50 [5] was > 59.6 µM (inactive) and the IC50 [6] was > 20 µM (inactive). For the same compound, the IC50 [7] was > 59.6 µM (inactive), the IC50 [8] was > 59.6 µM (inactive) and the IC50 [9] was 3.09 µM (active).
For `O=C(O)C1CC(c2ccccc2Cl)=NO1` (stereo unspecified), the EC50 [10] was > 100 µM (inactive) and the EC50 [11] was > 100 µM (inactive).
In the case of `CCOc1ccccc1/C=N/NC(=O)c1nnn(-c2nonc2N)c1CN1CCCCCC1`, the AC50 [12] is reported as < 16 nM (active) and the AC50 [13] is reported as 21.9 nM (active).
In the case of `COc1ccc(Oc2c(Cl)c(C(=O)O)nn(-c3ccc(C(C)C)cc3)c2=O)cc1`, the IC50 [14] is reported as > 20 µM (inactive) and the IC50 [15] is reported as > 20 µM (inactive).
For `Cc1ccc(NC(=O)CSc2nc3ccccc3c(=O)[nH]2)cc1Cl`, the CC50 [16] was > 100 µM (active) and the CC50 [17] was > 100 µM (active).
In the case of `N#CC(c1ccc(F)cc1Cl)c1c(Cl)cnn(Cc2cccc3ccccc23)c1=O` (stereo unspecified), the IC50 [18] is reported as 1.71 µM (active) and the IC50 [19] is reported as 1.71 µM (active).
In the case of `O=C(Nc1cccc(C(F)(F)F)c1)Nc1cc(Cl)ccc1O`, the Ki [20] is reported as 20 µM (active) and the Ki [21] is reported as 10 µM (active).
